From PubChem BioAssay (NCI)
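Interpolation was linear, between the two tested concentrations surrounding the appropriate level; five concentrations were tested over 48 hours in 96-well plates. TGI: concentration producing complete growth inhibition.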

How the values were obtained:
Experiment in all cases: NCI anticancer screen, dose series, 48 h
[1] = tested on: HCT-15 colon
[2] = tested on: RPMI-8226 leukemia
[3] = tested on: NCI-H460 lung
[4] = tested on: K-562 leukemia
[5] = tested on: SF-539 CNS
[6] = tested on: UO-31 renal
[7] = tested on: NCI-H226 lung
[8] = tested on: OVCAR-3 ovarian
[9] = tested on: SK-MEL-5 melanoma
[10] = tested on: SNB-19 CNS

Row | SMILES | TGI [1] [µM] | TGI [2] [µM] | TGI [3] [µM] | TGI [4] [µM] | TGI [5] [µM] | TGI [6] [µM] | TGI [7] [µM] | TGI [8] [µM] | TGI [9] [µM] | TGI [10] [µM]
1 | O=c1ccn(CC2(CO)CCCC2)c(=O)[nH]1 | > 100 | > 100 | > 100 | > 100 | > 100 | > 100 | > 100 | > 100 | > 100 | –
2 | COc1cc2nc(Nc3cccc(Br)c3)nc(Nc3cccc(Br)c3)c2cc1OC | 33.3 | – | 51.8 | 62.2 | – | 29.4 | – | 31.2 | 30.7 | 32.3
3 | CC(C)(C)n1c(=O)n2n(c1=O)Cc1cccc3cccc(c13)C2 | 39.5 | 71.6 | 23.9 | 35.4 | 36.4 | 53.1 | – | 35.1 | > 100 | > 100
4 | NC(=S)N/N=C/c1nccc2ccccc12 | > 100 | > 100 | 4.94 | > 100 | 9.11 | 3.42 | – | – | > 100 | 32.7
5 | CCN(CC)C(=O)Cn1c(-c2ccccc2)cc2ccccc21 | > 100 | – | > 100 | > 100 | > 100 | 64.5 | > 100 | > 100 | 31.9 | > 100
6 | CC1(C)CC(=O)C(/C=N/C(N)=S)=C(O)C1 | > 100 | – | > 100 | – | > 100 | > 100 | > 100 | > 100 | > 100 | > 100
7 | CC(=O)C1C(=O)C(=O)N(c2ccccc2)C1=O (stereo unspecified) | > 100 | – | > 100 | – | > 100 | > 100 | > 100 | > 100 | > 100 | > 100
8 | O=C1C(C(O)(C(F)(F)Cl)C(F)(F)Cl)CCCC1C(O)(C(F)(F)Cl)C(F)(F)Cl (stereo unspecified) | > 10 | – | > 10 | – | > 10 | – | > 10 | > 10 | > 10 | > 10
9 | C1=NCCN2CCN(CCN=Cc3ccccc3OCc3cccc(n3)COc3ccccc31)CC2 | 21.4 | 19.1 | > 50 | > 50 | 14.1 | > 50 | – | 4.66 | – | > 50
10 | COc1cc(=O)c2c(O)c3c(O)oc(C)cc3c(OC)c2c1 | 86.8 | 46.4 | > 100 | 51.7 | 53.8 | > 100 | – | 59.1 | 64.5 | > 100
11 | O=Cc1c2n(c3ccccc13)N[C@@](Cc1ccc(O)cc1)(C(=O)O)C2 | > 100 | > 100 | – | > 100 | > 100 | > 100 | > 100 | > 100 | > 100 | > 100
12 | CCN(CC)Cc1cc(Nc2c3ccccc3nc3c2[nH]c2ccccc23)cc(CN(CC)CC)c1O | 3.4 | – | 2.01 | > 100 | 2.29 | 4.62 | 6.01 | – | 2.95 | 5.75
13 | CCOc1ccc2nc3nc(=O)[nH]c(C)c3c(NCCCN(CC)CC)c2c1 | > 100 | – | > 100 | > 100 | > 100 | > 100 | > 100 | > 100 | > 100 | > 100
14 | c1cnn(C23C4C5C6C4C2C6C53)c1 (stereo unspecified) | > 100 | > 100 | > 100 | > 100 | > 100 | – | > 100 | – | > 100 | > 100
15 | CCCCCC1CC=CC(=O)O1 (stereo unspecified) | 21.9 | 12.4 | 33.6 | 42.7 | 3.83 | 24 | – | 31.3 | 26.8 | 54.1
16 | CCCC(=O)NC(Nc1cc(C)ccn1)(C(=O)OCC)C(F)(F)F (stereo unspecified) | > 100 | > 100 | – | > 100 | > 100 | > 100 | > 100 | > 100 | > 100 | > 100
17 | O=C(c1ccccc1)c1ccc(N2C(=O)/C(=C/Cc3ccco3)N=C2c2ccccc2)c(N2C(=O)/C(=C/Cc3ccco3)N=C2c2ccccc2)c1 | > 100 | 91.3 | > 100 | > 100 | 32.7 | > 100 | – | 46.7 | 88.5 | > 100
18 | O=C(Cn1cc(-c2ccccc2)nn1)NC1CCCCC1 | > 100 | > 100 | > 100 | > 100 | > 100 | – | > 100 | – | > 100 | > 100
19 | CCN1CCCC(C#N)(c2ccccc2)CC1 (stereo unspecified) | > 100 | > 100 | > 100 | > 100 | – | > 100 | – | – | > 100 | > 100
20 | CCOc1ccc(N/C(=C(/C(Cl)=C(/Cl)Nc2ccccc2)[N+](=O)[O-])n2nnc3ccccc32)cc1 | 28 | > 100 | > 100 | > 100 | – | 54.5 | > 100 | 80.8 | 37 | > 100
21 | Cc1[nH]c(=O)nc2c1C(NCCCN(C)C)c1cc(Cl)ccc1N2 (stereo unspecified) | – | 44 | 29 | 26.9 | 26.3 | 26.4 | 31 | 33.6 | – | 31.2
22 | c1ccc2c(c1)NCCC(=NC1CCCCC1)N2 | > 100 | > 100 | > 100 | > 100 | – | > 100 | > 100 | > 100 | > 100 | > 100
23 | NC(CSCc1ccc(I)cc1)C(=O)O (stereo unspecified) | > 100 | > 100 | > 100 | > 100 | – | > 100 | > 100 | > 100 | > 100 | > 100
24 | C(/C=C/c1ccccc1)=Nc1ccc2c(c1)Cc1ccccc1-2 | > 100 | – | > 100 | > 100 | – | > 100 | > 100 | > 100 | > 100 | > 100

Row | SMILES | TGI [1] [µM] | TGI [2] [µM] | TGI [3] [µM] | TGI [4] [µM] | TGI [5] [µM] | TGI [6] [µM] | TGI [7] [µM] | TGI [8] [µM] | TGI [9] [µM] | TGI [10] [µM]
25 | c1ccc2c(CN3CCN(Cc4c[nH]c5ccccc45)CC3)c[nH]c2c1 | 44.4 | 53.2 | 25.3 | 39.7 | – | 27.7 | 37.7 | 35.6 | 29.1 | 45.9
26 | CC1=NN(C(=O)c2ccccc2O)C(=O)/C1=C/c1cccc(O)c1 | > 100 | > 100 | > 100 | > 100 | 4.29 | – | 83.2 | – | > 100 | > 100
27 | COc1ccc(N=C2S/C(=N\C(=Nc3ccccc3)SCc3ccccc3)N(c3ccccc3)C2=Nc2ccc(OC)cc2)cc1 | > 100 | > 100 | – | > 100 | – | > 100 | > 100 | – | > 100 | > 100
28 | Cc1nc2c(c(=O)[nH]1)S/C(=C(/C#N)c1nc3ccccc3[nH]1)N2c1ccccc1 | > 100 | > 100 | > 100 | > 100 | > 100 | > 100 | – | > 100 | > 100 | > 100
29 | Nc1ccc2nc3c(nc2c1)C(=O)c1ccccc1-3 | > 100 | > 100 | > 100 | > 100 | > 100 | – | > 100 | > 100 | > 100 | > 100
30 | Clc1c(Cl)c(Cl)c2c(nnn2C2CCCO2)c1Cl (stereo unspecified) | 67 | – | 41.8 | 48.7 | > 100 | – | > 100 | > 100 | > 100 | –
31 | CCOP(=O)(C=C=C1CCC2[C@@H]3CCc4cc(OC)ccc4C3CC[C@]12C)OCC (stereo partly specified) | 24.8 | – | 27.6 | 10.7 | 29 | – | 21.6 | 24.2 | 14.2 | 28.3
32 | COc1cc(C(=O)/C=C/c2ccc(OCCSCCCCCCCCCCSCCOc3ccc(/C=C/C(=O)c4cc(OC)c(OC)c(OC)c4)cc3)cc2)cc(OC)c1OC | > 100 | > 100 | – | > 100 | > 100 | > 100 | – | > 100 | > 100 | > 100
33 | Nc1ccccc1Nc1ccccc1C(=O)[O-].Nc1ccccc1Nc1ccccc1C(=O)[O-].[Zn+2] | > 100 | > 100 | > 100 | > 100 | > 100 | > 100 | – | 61 | > 100 | > 100
34 | Cn1c2ccccc2n2c3ncccc3c(=NCCCC(=O)O)c(C#N)c12 | > 100 | > 100 | > 100 | > 100 | – | > 100 | > 100 | > 100 | > 100 | > 100
35 | CC(C)C1OC(N)=C(C#N)C1(C#N)C#N (stereo unspecified) | – | 79.2 | – | > 100 | > 100 | > 100 | > 100 | – | > 100 | > 100
36 | COc1ccccc1C1C(Cl)C(=O)N1n1cnc2ccccc2c1=O (stereo unspecified) | > 100 | > 100 | > 100 | > 100 | – | > 100 | > 100 | > 100 | > 100 | > 100
37 | Clc1ccc(Nc2nnc(CCCCCCCCc3nnc(Nc4ccc(Cl)cc4)o3)o2)cc1 | > 100 | 79.7 | > 100 | > 100 | – | > 100 | > 100 | – | 64.2 | > 100
38 | Oc1cc(O)c2ccc(-c3ccc(O)c(O)c3)[o+]c2c1 | > 100 | > 100 | > 100 | > 100 | > 100 | > 100 | > 100 | > 100 | – | > 100
39 | O=C1c2cccnc2S(=O)(=O)N1c1ccc(Oc2ccccc2)cc1 | > 100 | > 100 | > 100 | > 100 | > 100 | > 100 | > 100 | > 100 | – | > 100
40 | Cc1ccc(S(=O)(=O)CN2C(=O)C(c3ccccc3)(c3ccccc3)C23OC(c2ccc(Cl)cc2)=CC3=O)cc1 (stereo unspecified) | > 10 | – | > 10 | > 10 | > 10 | > 10 | > 10 | > 10 | > 10 | > 10
41 | O=C(O)CSCc1cc2c(O)c(c1)Cc1cc(CSCC(=O)O)cc(c1O)Cc1cc(CSCC(=O)O)cc(c1O)Cc1cc(CSCC(=O)O)cc(c1O)C2 | > 100 | > 100 | > 100 | > 100 | > 100 | > 100 | > 100 | > 100 | – | > 100
42 | O=C1NC(=S)N/C1=C\c1cc2c(=O)c3ccccc3sc2s1 | > 100 | > 100 | > 100 | > 100 | – | > 100 | > 100 | > 100 | > 100 | > 100
43 | O=P1(Oc2ccccc2)N=P(c2ccccc2)(c2ccccc2)C=C(c2ccc(Cl)cc2)N1 (stereo unspecified) | 21.9 | 9.55 | 18.5 | 22.2 | 28.9 | 25.8 | – | 13.6 | 10.2 | 29.7
44 | N#Cc1cnc(-n2[nH]c3c(c2=O)CCCC3)[nH]c1=O | > 100 | > 100 | > 100 | > 100 | > 100 | > 100 | > 100 | – | > 100 | > 100
45 | NC(=O)C(=O)c1ncn(Cc2ccccc2)c1N | > 100 | > 100 | > 100 | > 100 | > 100 | – | > 100 | > 100 | > 100 | > 100
46 | N#CC(N)c1ccc(OCCCCCCCCCCOc2ccc(C(N)C#N)cc2)cc1 (stereo unspecified) | > 100 | – | > 100 | > 100 | > 100 | > 100 | > 100 | > 100 | > 100 | > 100
47 | O=C(c1cc2ccccc2[nH]1)N1C2CCC1CN(CCOC(c1ccc(F)cc1)c1ccc(F)cc1)CC2 (stereo unspecified) | > 100 | > 100 | > 100 | > 100 | > 100 | – | > 100 | > 100 | > 100 | > 100
48 | Cc1ccc2c(=O)cc(Cc3cccs3)[nH]c2n1 | > 100 | > 100 | – | > 100 | – | > 100 | > 100 | > 100 | > 100 | > 100
